Read-outs that look alike come from different tables or passages of the source.

By IC50 is commonly meant the concentration needed to halve the response being measured.

Data set [1] concerns the target Baf3/WT (Homo sapiens, UniProt P00519). The data set is described as follows: MTT cell proliferation assay, Baf3/WT. To be noted: Table 1A, 24-72 hrs incubation, read-out: IC50 values obtained from MTT assay. The data set is classed as cell-based. The method, then: (§1) All the experimental compounds were evaluated for in vitro efficacy employing standard cell lines used for the screening of anti-cancer compounds.
(§2) In Vitro Studies of NRC-21T on BCR-abl Positive Cell Line K562 and Mutant Cell Lines Baf3/T315i, M351T, E255K and WT.
(§3) The stock solution was further diluted with the same cell culture medium and used in concentrations of 0.1 nm to 10 μm. Cell proliferation by MTT assay was done as follows. 1000 to 10,000 cells were seeded per well in 96-well plate and different concentrations of […] ranging from 10 μm to 0.1 nM were added in triplicates. After incubating the cells with NRC-21T for the required time period 24-72 hrs, 15 μl of 5 mg/ml MTT was added and incubated for additional 4 hours at 37° C. and 5% CO2. After 4 hrs, formazan crystals were dissolved in solubilizing buffer overnight at 37° C. Absorbance was measured on Elisa reader at dual wavelength of 570-630-nm. By MTT assay the IC50 values of the NRC21T were computed. […] (FIG. 3)
For orientation: Tetrazolium dyes change colour on reduction, which living cells bring about.

Data set [2] relates to BCR-abl positive cell line K562. The data set is described as follows: MTT cell proliferation assay, K562. It is filed as cell-based. To be noted: Homo sapiens, read-out: IC50 values obtained from MTT assay. The method, then:
as §1, §2, §3

Data set [3] deals with BaF3/T315i mutant Leukemia cancer cells. The data set is described as follows: Matrigel invasion assay. It is filed as cell-based. To be noted: matrigel transwell, 72 hrs, specified concentration.
Description: T315i cells (3×10^5) were suspended in 300 μl of serum-free medium and placed in the upper compartment of transwell chambers pre-coated with the matrigel (Millipore, Catalog No. ECM550, USA). The lower compartment of the chamber was filled with 500 μl serum-medium (10% FBS) and the cells were allowed to migrate for 72 hrs. After incubation, the cells were fixed and stained with the dye provided along with the kit and quantified using Elisa plate reader at 560 nm.
The target in data set [4] is Baf3/M351T (Homo sapiens, UniProt P00519, M351T, cells depend on it). The data set is described as follows: MTT cell proliferation assay, Baf3/M351T. The data set is classed as cell-based. As to conditions: Table 1A, 24-72 hrs incubation, read-out: IC50 values obtained from MTT assay. The method, then:
as §1, §2, §3

The subject of data set [5] is T315I induced tumour. Briefly: Antagonism in T315I induced tumour in Nude Mice. As to conditions: for Tumour volume after treatment (Mean ± SEM): daily oral, NRC21T 200 mg/kg, Ponatinib 50 mg/kg. The data set is classed as in vivo. As to the method:
The study was carried out with 18 Nude Mice (9 Male+9 Female).
The cell line was inoculated into Nude Mice subcutaneously to the right hind limb flank at a strength of 1×10^6 cells/0.2 ml. Animals were observed daily for the appearance of tumour. The tumour volume was measured using the formula ½ l×w^2 (l=length of tumour & w=width of tumour). When the mean tumour volume was recorded above 400 mm^3, the treatment with the above drugs was started. The above drugs were administered orally daily for 30 days. Weights of Nude Mice were taken daily before dosing and tumour measurements were done on alternative days using digital Vernier caliper. Surviving animals were sacrificed after the dosing was complete for 30 days and the organs (tumour with skin and spleen) were collected.

The subject of data set [6] is T315I cell Line. The data set is described as follows: Survival time in SCID Mice injected with T315I cell line. It is filed as in vivo. To be noted: T315I cells i.v., 30 days dosing, NRC21T 200 mg/kg p.o, Ponatinib 10 mg/kg p.o.
Data set [7] concerns the target Baf3/T315I (Homo sapiens, UniProt P00519, T315I, cells depend on it). Briefly: MTT cell proliferation assay, Baf3/T315I. The data set is classed as cell-based. To be noted: read-out: IC50 values obtained from MTT assay. The method, then:
as §1, §2, §3

The nature of data set [8]: in vivo. As to conditions: both, Swiss Albino, mouse.
The target in data set [9] is Baf3/E255K (Homo sapiens, UniProt P00519, E255K, cells depend on it). Briefly: MTT cell proliferation assay, Baf3/E255K. It is filed as cell-based. As to conditions: Table 1A, 24-72 hrs incubation, read-out: IC50 values obtained from MTT assay. As to the method: as §1, §2, §3

Regarding `Cc1ccc(C(=O)Nc2ccc(CN3CCN(C)CC3)c(C(F)(F)F)c2)cc1C#Cc1cnc2[nH]c(=O)ccc2c1` [NRC21T, 4-Methyl-N-[4-[(4-methylpiperazin-1-yl)methyl]-3-(trifluoromethyl)phenyl]-3-[2-(7-oxo-8H-1,8-naphthyridin-3-yl)ethynyl]benzamide], the GI50 in data set [1] came out at 11 nM; in data set [4], 2 nM; in data set [7] (Table 1A, Baf3/T315I, 24-72 hrs incubation), 14 nM; in data set [9], 16 nM. Besides, in data set [2] (Table 1A, 24-72 hrs incubation), the IC50 was found to be 7 nM. For the same compound, the “Percentage of Anti-invasion property” value in data set [3] turned out to be 28%. In addition, the “Tumour volume after treatment (Mean ± SEM)” value in data set [5] (3rd Day) worked out at 721.18 ± 141.41 mm^3; in data set [5] (5th Day) it was 183.97 ± 8.66 mm^3; in data set [5] (7th Day) it was 106.59 ± 11.90 mm^3; in data set [5] (9th Day) it was 83.21 ± 8.83 mm^3; in data set [5] (11th Day), 48.88 ± 4.36 mm^3; in data set [5] (13th Day) it was 10.61 ± 2.3 mm^3. Further, in data set [5] (before treatment, NRC21T 200 mg/kg p.o, Ponatinib 50 mg/kg p.o groups), the “Initial tumour volume (Mean ± SEM)” value worked out at 921.35 ± 176.32 mm^3. Also, in [6], the “Mean Survival Time (Mean ± SEM)” value is 36 ± 0 days. For the same compound, in data set [8], the MTD at 14 days was more than 2000 mg/kg.

As to `Cc1ccc(NC(=O)c2cccc(C(F)(F)F)c2)cc1C#Cc1cnc2[nH]c(=O)ccc2c1` [NRC-13T, N-[4-Methyl-3-[2-(7-oxo-8H-1,8-naphthyridin-3-yl)ethynyl]phenyl]-3-(trifluoromethyl)benzamide], the IC50 in [2] (Table 1B) came to 9 nM. Further, in data set [7] (Table 1B, T315I), the GI50 is 1510 nM.

As for `Cc1ccc(C(=O)Nc2cccc(C(F)(F)F)c2)cc1C#Cc1cnc2[nH]c(=O)ccc2c1` [NRC-14T, 4-Methyl-3-[2-(7-oxo-8H-1,8-naphthyridin-3-yl)ethynyl]-N-[3-(trifluoromethyl)phenyl]benzamide], in data set [2] (Table 1B), the IC50 stood at 8 nM. In addition, in data set [7] (Table 1B, T315I), the GI50 was 1040 nM.

Take `Cc1ccc(NC(=O)c2cc(C(F)(F)F)cc(C(F)(F)F)c2)cc1C#Cc1cnc2[nH]c(=O)ccc2c1` [NRC-15T, N-[4-Methyl-3-[2-(7-oxo-8H-1,8-naphthyridin-3-yl)ethynyl]phenyl]-3,5-Bis(trifluoromethyl)benzamide]: the IC50 in data set [2] (Table 1B) came to 20 nM. Besides, the GI50 in data set [7] (Table 1B, T315I) stood at 7690 nM.

As for `Cc1ccc(C(=O)Nc2cc(C(F)(F)F)cc(C(F)(F)F)c2)cc1C#Cc1cnc2[nH]c(=O)ccc2c1` [NRC-16T, N-[3,5-Bis(trifluoromethyl)phenyl]-4-methyl-3-[2-(7-oxo-8H-1,8-naphthyridin-3-yl)ethynyl]benzamide], the GI50 in data set [7] (Table 1B, T315I) is more than 10000 nM.

For the compound `Cc1ccc(C(=O)Nc2cc(CN3CCN(C)CC3)cc(C(F)(F)F)c2)cc1C#Cc1cnc2[nH]c(=O)ccc2c1` [NRC-17T, 4-Methyl-N-[3-[(4-methylpiperazin-1-yl)methyl]-5-(trifluoromethyl)phenyl]-3-[2-(7-oxo-8H-1,8-naphthyridin-3-yl)ethynyl]benzamide], the IC50 in [2] (Table 1B) turned out to be 21 nM. In addition, the GI50 in data set [7] (Table 1B, T315I) was 712 nM.

On to `Cc1cn(-c2cc(NC(=O)c3ccc(C)c(C#Cc4cnc5[nH]c(=O)ccc5c4)c3)cc(C(F)(F)F)c2)cn1` [NRC-18T, 4-Methyl-N-[3-(4-methylimidazol-1-yl)-5-(trifluoromethyl)phenyl]-3-[2-(7-oxo-8H-1,8-naphthyridin-3-yl)ethynyl]benzamide], for which, in [7] (Table 1B, T315I), the GI50 worked out at 228 nM.

Regarding `Cc1ccc(NC(=O)c2ccc(CN3CCN(C)CC3)c(C(F)(F)F)c2)cc1C#Cc1cnc2[nH]c(=O)ccc2c1` [NRC-19T, N-[4-Methyl-3-[2-(7-oxo-8H-1,8-naphthyridin-3-yl)ethynyl]phenyl]-4-[(4-methylpiperazin-1-yl)methyl]-3-(trifluoromethyl)benzamide], the IC50 in [2] (Table 1B) was 7 nM. For the same compound, the GI50 in [7] (Table 1B, T315I) was determined as 334 nM.

For the compound `Cc1ccc(C(=O)Nc2ccc(CN3CCN(C)CC3)c(C(F)(F)F)c2)cc1/C=C/c1cnc2[nH]c(=O)ccc2c1` [NRC-20T, 4-Methyl-N-[4-[(4-methylpiperazin-1-yl)methyl]-3-(trifluoromethyl)phenyl]-3-[(E)-2-(7-oxo-8H-1,8-naphthyridin-3-yl)vinyl]benzamide], in data set [2] (Table 1B), the IC50 is 33 nM. Further, the GI50 in data set [7] (Table 1B, T315I) turned out to be 155 nM.

For the compound `Cc1ccc(C(=O)Nc2ccc(CN3CCN(C)CC3)c(C(F)(F)F)c2)cc1C#Cc1cnc2cccnn12` [Ponatinib, reference compound], the “Percentage of Anti-invasion property” value in data set [3] was 12%. Moreover, the “Mean Survival Time (Mean ± SEM)” value in [6] worked out at 36 ± 0 days.

These data come from US10047088B2, “1H-1,8-naphthyridin-2-ones as anti proliferative compounds” (NATCO PHARMA LIMITED, priority 2014, dated 2018).
